{"source": "patent US10119972B2", "about": "“Reactive labelling compounds and uses thereof” (Academia Sinica, priority 2014, dated 2018)", "key": {"[1]": {"test": "SPAAC reaction kinetics of 101 with benzyl azide monitored by 1H-NMR", "type": "physicochemical", "settings": "101 with benzyl azide (1:1), 20 mM, CD3CN, 25° C.", "description": "To evaluate the feasibility of compound 101 as a reagent for the SPAAC-based fluorescence labeling, its reaction scope and kinetics using benzyl azide as a model substrate was first studied. The SPAAC reaction of 101 with benzyl azide in acetonitrile was completed in 2 h at room temperature to give triazole 111 in 95% yield (Scheme 100). The reactivity of 101 with benzyl azide (1:1) in CD3CN was determined by integration of multiple chemical shifts in the ^1H-NMR spectrum to yield a second-order rate constant of 0.012 M^−1s^−1 at 25° C. We also observed the cycloaddition reaction between 101 and N-azidoacetylmannosamine (ManNAz), proceeding similarly to give triazole 112 with a second-order rate constant of 0.010 M^−1s^−1 at 25° C. in a solution of CD3OD-D2O (5:1, v/v) (FIGS. 17 and 18).\nPart A: Compound 101 and benzyl azide were predissolved in CD3CN, and then mixed at equimolar concentration of 20 mM. The reaction was monitored by ^1H-NMR analysis over a period of 1 h. The concentration of each component was determined, based on the concentration of initial compound 101, by integration at multiple chemical shifts in the ^1H-NMR spectrum. […] (M^−1) vs. time (sec), a second order rate constant in unit of M^−1s^−1 was determined using linear regression analysis. […]\nFIG. 17 describes a Plot of 1/[101] vs. time for the reaction of compound 101 and benzyl azide in CD3CN as monitored by ^1H-NMR."}, "[2]": {"test": "Stability in presence of 3-mercaptopropionic acid by 1H-NMR", "type": "physicochemical", "settings": "25 mM in CDCl3 with 3-mercaptopropionic acid (32 mM), 25° C., 24 h", "description": "A potential problematic side reaction of cyclooctynes is the addition with proteinic or endogenous thiols to the corresponding vinyl sulfides. To test whether potential non-specific stainings of 101 and the corresponding triazole 111 may occur due to additions of the SH groups to the triple bond or double bond by proteinic or endogenous thiols, the experiment was performed by incubation of 101 and 111 with 3-mercaptopropionic acid in CDCl3 (FIGS. 25 and 26).\nA solution of compound 101 and compound 111 (25 mM in CDCl3) was incubated with a solution of 3-mercaptopropionic acid (32 mM in CDCl3) at room temperature (25° C.).\nFIG. 25 show ^1H-NMR spectrum in CDCl3 of compound 101 and 3-mercaptopropionic acid alone, and ^1H-NMR spectrum of compound 101 was treated with 3-mercaptopropionic acid at 25° C. for 0 h, 2 h and 24 h."}, "CL1-5 cells": {"test_system": "CL1-5 cells", "test": "Dual fluorescence labeling in cells (SPAAC with CuAAC), confocal microscopy", "type": "cell-based", "settings": "CL1-5 cells with Ac4ManNAl and Ac4GlcNAz; 100 μM coumOCT, 0.1 μM AzBOCEt", "description": "A dual-labeling experiment was performed using SPAAC in combination with CuAAC for the concurrent fluorescence labeling of two different metabolically incorporated glycoconjugates. Peracetylated N-acetylmannosamine (Ac4ManNAc) and peracetylated N-acetylglucosamine (Ac4GlcNAc) were employed as the control sugars. ManNAc is converted metabolically to sialic acid that is found as a terminal monosaccharide of glycoproteins and glycolipids in cell, whereas GlcNAz is an internal monosaccharide that abundant in the N- and O-linked glycans produced in the endoplasmic reticulum and Golgi. CL1-5 cells were incubated in the presence of both alkyne-containing sugar (Ac4ManNAl) and azido-containing sugar (Ac4GlcNAz) for three days. The cells were stained by SPAAC with coumOCT (for azido sugars), followed by CuAAC with AzBOCEt^6j (for alkynyl sugars), and investigated by confocal microscopy (FIG. 24).\n(A) Illustration of the cell labeling experiments using Ac4ManNAl, Ac4GlcNAz, 101 and AzBOCEt. CL1-5 cells were incubated with 100 μM of Ac4ManNAl and Ac4GlcNAz or control sugars (Ac4ManNAc and Ac4GlcNAc) for 3 days, which were treated with 100 μM of probe 101 for 0.5 h under SPAAC conditions, and then incubated with 0.1 μM of AzBOCEt for 1 h under CuAAC conditions. (B) Dual fluorescence imaging in CL1-5 cells. […]"}}, "note": "Entries after “also recorded” stand apart in the source; their conditions may differ."}
{"smiles": "O=c1ccc2cc3c(cc2o1)C#CCCCC3", "note": "[Compound 101, 6,7,8,9-Tetrahydro-10,11-didehydro-cycloocta[g]chromen-2(2H)-one]", "values": [{"measurement": "second-order rate constant", "setting": "[1]", "value": 0.012, "unit": "M⁻¹ s⁻¹"}, {"measurement": "thiol-yne or thiol-ene addition / stability in the presence of thiols", "setting": "[2]", "value": "inactive; also recorded: high stability"}, {"measurement": "localization of labeled glycoconjugates", "setting": "CL1-5 cells", "value": "shown only in the cytosol"}]}
